Data: publication PMC12040169 (PLOS Biology, 2025)

Key:
[1] = test system: T1, C. trachomatis L2/434/Bu expressing GFP (CTL2-GFP); test: microbe, parasite or virus in culture; set-up: C. trachomatis total inclusion area by high-content imaging, normalised to DMSO; conditions: Chlamydia trachomatis, HeLa, 28.5 h; total inclusion area; read-out: % of control remaining
T1 construct: L2/434/Bu GFP intracellular growth in HeLa cells
Text: We screened a library of 36,785 small molecules displaying drug-like properties and covering a wide chemical space (Fig 1A and S2A Data). In this process, we also complemented the assay described above with an imaging-based readout (Fig 1B). After measurements of bulk GFP and resorufin fluorescence, cells were fixed, stained with the DNA dye Hoechst, and imaged at a high-content imaging platform to detect chlamydial inclusions (GFP) and host cell nuclei (Hoechst). The total area and number of inclusions in individual wells and the number of nuclei then served as additional proxies for chlamydial growth and host cell viability. […] MICs were calculated as described above.

[2] = test system: T2, CTL2-GFP (C. trachomatis L2/434/Bu, GFP-expressing); test: microbe, parasite or virus in culture; set-up: Intracellular C. trachomatis growth in HeLa cells, bulk GFP fluorescence relative to DMSO; conditions: Chlamydia trachomatis, HeLa, 28.5 h; bulk GFP, mean of 2; read-out: % of control remaining
T2 construct: L2/434/Bu, GFP-expressing
Method: MICs were calculated as described above.

in vitro = test: in vitro; set-up: Viability of infected HeLa host cells, resazurin conversion, bulk resorufin fluorescence relative to DMSO; conditions: human, hela cells; bulk resorufin, mean of 2

| SMILES | activity at 1 µM [1] | activity at 5 µM [1] | activity at 10 µM [1] | activity at 1 µM [2] | activity at 5 µM [2] | activity at 10 µM [2] | viability at 28.5 h, 1 µM (in vitro) | viability at 28.5 h, 5 µM (in vitro) | viability at 28.5 h, 10 µM (in vitro) |
| --- | --- | --- | --- | --- | --- | --- | --- | --- | --- |
| N#Cc1c(Nc2cccc(C(F)(F)F)c2)sc(C(=O)c2ccc3c(c2)OCO3)c1N [CBK074399] | 2.52% | 2.64% | 6.62% | 10.1% | 11.2% | 17.7% | 87.7% | 85.9% | 81.1% |
| Cc1ccc(OCC(O)CN2CCN(c3nc(-c4ccccc4)ns3)CC2)c([N+](=O)[O-])c1 (stereo not drawn) [CBK074696] | 113% | 55.9% | 68.2% | 147% | 120% | 133% | 104% | 99.5% | 102% |
| c1ccc(CNc2nnc(-c3ccccc3)s2)cc1 [CBK074928] | 68.4% | 34.4% | 26.9% | 92.7% | 77.6% | 65.1% | 95% | 91.9% | 104% |
| CC(C)Nc1nc2cc(Cl)c(Cl)cc2nc1Sc1cccc(O)c1 [CBK093732] | 129% | 50.2% | 35.1% | 124% | 94.8% | 55.6% | 95.8% | 88% | 100% |
| CC(C)(N)CNC(=O)c1cc(C(C)(C)C)nn1Cc1ccc(Cl)cc1Cl [CBK107296] | 87.7% | 54.2% | 26.9% | 115% | 76.6% | 36% | 91.1% | 95.2% | 93.8% |
| COc1ccc2[nH]cc(CCNC(=O)c3ccc(Cl)c(Cl)c3)c2c1 [CBK115870] | 109% | 78.8% | 40.9% | 132% | 66.5% | 33.8% | 93.3% | 88.8% | 92.1% |
| O=C(Nc1ccc2[nH]ccc2c1)c1ccccc1Nc1cccc(C(F)(F)F)c1 [CBK149583] | 93.2% | 59.8% | 72.2% | 119% | 90% | 67.7% | 118% | 114% | 112% |
| O=C(NCC1CC1)c1ccc(N2CCN(C(=O)c3ccccc3C(F)(F)F)CC2)nn1 [CBK153220] | 146% | 79.1% | 94.4% | 149% | 123% | 138% | 104% | 93% | 95.9% |
| O=C(NCc1ccc([N+](=O)[O-])cc1)c1cccnc1NCc1ccc2c(c1)OCO2 [CBK153436] | 65.8% | 65.9% | 38.2% | 113% | 68.2% | 25.1% | 103% | 109% | 109% |
| O=C(Nc1ncc(-c2ccccc2)s1)c1cccc([N+](=O)[O-])c1 [CBK157055] | 86.4% | 88.1% | 56.9% | 110% | 86.9% | 76.9% | 114% | 102% | 114% |
| O=C(NCCc1c[nH]c2ccc(Cl)cc12)c1ccc(Cl)cc1Cl [CBK159750] | 91.9% | 68.5% | 6.32% | 88% | 40.4% | 8.46% | 95.1% | 93.9% | 98.4% |
| Cc1ccc(CNC(=O)OCc2cccnc2C)o1 [CBK200131] | 120% | 61.9% | 91.2% | 120% | 111% | 119% | 102% | 104% | 101% |
